Assay results published in patent publication US8487103B2 (Roche Palo Alto LLC, priority 2009, dated 2013).

How the values were obtained:
[1] = biological target: T1, HCV polymerase (NS5B570n-Con1) (Hepatitis C virus genotype 1b, UniProt Q9WMX2); assay: HCV NS5B RNA Polymerase Activity; assay type: biochemical, HCV Con1 strain
T1 construct: contains a 21 amino acid deletion at the C-terminus relative to the full-length HCV polymerase; 6-histidine (N); made in house; host or cells: E. coli BL21(DE) pLysS, plasmid pET 17b
Method: The enzymatic activity of HCV polymerase (NS5B570n-Con1) was measured as the incorporation of radiolabeled nucleotide monophosphates into acid insoluble RNA products. Unincorporated radiolabeled substrate was removed by filtration and scintillant was added to the washed and dried filter plate containing radiolabeled RNA product. The amount of RNA product generated by NS5B570-Con1 at the end of the reaction was directly proportional to the amount of light emitted by the scintillant.
The N-terminal 6-histidine tagged HCV polymerase, derived from HCV Con1 strain, genotype 1b (NS5B570n-Con1) contains a 21 amino acid deletion at the C-terminus relative to the full-length HCV polymerase and was purified from E. coli strain BL21(DE) pLysS. The construct, containing the coding sequence of HCV NS5B Con1 (GenBank accession number AJ242654) was inserted into the plasmid construct pET 17b, downstream of a T7 promoter expression cassette and transformed into E. coli. A single colony was grown overnight as a starter culture and later used inoculate 10 L of LB media supplemented with 100 μg/mL ampicillin at 37° C. Protein expression was induced by the addition of 0.25 mM isopropyl-β-D-thiogalactopyranoside (IPTG) when optical density at […] of the culture was between 0.6 and 0.8 and cells were harvested after 16 to 18 h at 30° C. NS5B570n-Con1 was purified to homogeneity using a three-step protocol including subsequent column chromatography on Ni-NTA, SP-Sepharose HP and Superdex 75 resins.
Each 50 μL enzymatic reaction contained 20 nM RNA template derived from the complementary sequence of the Internal Ribosome Entry Site (cIRES), 20 nM NS5B570n-Con1 enzyme, 0.5 μCi of tritiated UTP (Perkin Elmer catalog no. TRK-412; specific activity: 30 to 60 Ci/mmol; stock solution concentration from 7.5×10^−5 M to 20.6×10^−6 M), 1 μM each ATP, CTP, and GTP, 40 mM Tris-HCl pH 8.0, 40 mM NaCl, 4 mM DTT (dithiothreitol), 4 mM MgCl2, and 5 μl of compound serial diluted in DMSO. Reaction mixtures were assembled in 96-well filter plates (cat #MADVN0B, Millipore Co.) and incubated for 2 h at 30° C. Reactions were stopped by addition of 10% final (v/v) trichloroacetic acid and incubated for 40 min at 4° C. Reactions were filtered, washed with 8 reaction volumes of 10% (v/v) trichloroacetic acetic acid, 4 reaction volumes of 70% (v/v) ethanol, air dried, and 25 μl of scintillant (Microscint 20, Perkin-Elmer) was added to each reaction well.
The amount of light emitted from the scintillant was converted to counts per minute (CPM) on a Topcount® plate reader (Perkin-Elmer, Energy Range: Low, Efficiency Mode Normal, Count Time: 1 min, Background Subtract: none, Cross talk reduction: Off).
Data was analyzed in Excel® (Microsoft) and ActivityBase® (Idbs®). The reaction in the absence of enzyme was used to determine the background signal, which was subtracted from the enzymatic reactions. Positive control reactions were performed in the absence of compound, from which the background corrected activity was set as 100% polymerase activity. All data was expressed as a percentage of the positive control. The compound concentration at which the enzyme-catalyzed rate of RNA synthesis was reduced by 50% (IC50) was calculated by fitting equation (i) to the data where“Y”
[formula] corresponds to the relative enzyme activity (in %), “% Min” is the residual relative activity at saturating compound concentration, “% Max” is the relative maximum enzymatic activity, “X” corresponds to the compound concentration, and “S” is the Hill coefficient (or slope).

[2] = test system: HCV replicon cells (2209-23), genotype 1b replicon; assay: HCV Replicon Assay (Renilla luciferase reporter); assay type: cell-based, HCV genotype 1b; settings: Hepatitis C virus, 72 h; cell line 2209-23, luciferase activity after three days
HCV = settings: cited from earlier work
in vitro = settings: human

In the case of `COc1c(C(C)(C)C)cc(-n2ccc(=O)[nH]c2=O)c2ncc(-c3ccc(NS(C)(=O)=O)cc3)cc12` [Compound I-21, N-{4-[6-tert-Butyl-8-(2,4-dioxo-3,4-dihydro-2H-pyrimidin-1-yl)-5-methoxy-quinolin-3-yl]-phenyl}-methanesulfonamide], the IC50 [1] is reported as 2.2 nM, the IC50 [2] is reported as 0.3 nM and the melting point is reported as 277 to 281 °C.

In the case of `NC(=O)c1ncn([C@@H]2O[C@H](CO)[C@@H](O)[C@H]2O)n1` [ribavirin, 1-((2R,3R,4S,5R)-3,4-Dihydroxy-5-hydroxymethyl-tetrahydro-furan-2-yl)-1H-[1,2,4]triazole-3-carboxylic acid amide], the “serum amino transferase levels reduced to normal, share of patients” value (HCV; monotherapy) is listed as 40% and the “effect on serum HCV-RNA” value (HCV; sole treatment / monotherapy) is listed as “does not lower serum levels of HCV-RNA”.

`COc1c(C(C)(C)C)cc(-c2ccc[nH]c2=O)c2ncc(N3CC[C@H](CNS(C)(=O)=O)C3)cc12` [Compound I-18, N-{(S)-1-[6-tert-Butyl-5-methoxy-8-(2-oxo-1,2-dihydro-pyridin-3-yl)-quinolin-3-yl]-pyrrolidin-3-ylmethyl}-methanesulfonamide] showed an IC50 [1] of 0.2 nM, an IC50 [2] of 5.2 nM and a melting point of 275 to 280 °C. For the same compound, the CC50 at 3 days (in vitro) was 30.3 µM.
